For assay [1], the system named is Fibrosarcoma Meth A. Kind of assay: Test Method A: intradermally inoculated Meth A tumor in mice, intratumoral injection of test compound, tumor growth inhibition. The class given is in vivo, BALB/c mice. To be noted: 100 µg/mouse intratumorally once daily from Day 1 to Day 4 postimplant; for Mean of two diameters of the growing tumor: 1 x 10^5 Meth A cells intradermally; for responders at 0.1 mg / inhibition in vivo at 0.1 mg: Meth-A; for responders at 0.1 mg: read-out: Ratio of tumor free mice [Number of tumor free mice/ Number of mice used as a group] (converted); for inhibition in vivo at 0.1 mg: Mus musculus, read-out: Tumor growth inhibition (%) [(1-T/c)x100]. The method, then:
Groups of six female BALB/c mice, aged 12 weeks and weighing 19 - 21 g were used.
Fib,rosarcoma Meth A (hereinafter referred to as Meth A) was successively transferred every 7 days into BALB/c mice by intraperitoneal inoculation of the ascites cells thereof and the Meth A in the ascites cells as harvested 6 days after the inoculation was used as tumor cells.
Each of the BALB/c mice was inoculated intradermally with 1 x 10^5 Meth A cells in 0.05 ml Hanks solution.
Test compound was dissolved in 0.5% methylcellulose saline solution, and was intratumorally injected to each of the mice in doses of 100 µg/mouse once daily from Day 1 to Day 4 postimplant.
The control group was given with a vehicle alone in the same way.
The antitumor effectiveness of the test compound was estimated by tumor growth inhibition (1-T/C). • T: Mean diameter of the growing tumor of the medicated group • C: Mean diameter of the growing tumor of the control group

For assay [2], the system named is Fibrosarcoma Meth A. Kind of assay: Test Method B: intrapleurally inoculated Meth A tumor in mice, injection into pleural cavity, mean survival time. The class given is in vivo, BALB/c mice. On the set-up: dose or concentration left out as unconfirmed. The note with it: for Anti-tumor activity (%) *d: comparison of mean survival time of medicated group (T) and control group (C), into pleural cavity three times; for Mean survival time: into pleural cavity three times (before 14 days, after 1 hour and after 3 days of tumor implantation), 5 x 10^5 Meth A cells intrapleurally.
Method: Groups of eight female BALB/c mice, aged 8-9 weeks and weighing 18.0-22.5 g were used.
Fibrosarcoma Meth A (hereinafter referred to as Meth A) was successively transferred every 7 days into BALB/c mice by intraperitoneal inoculation of the ascites cells thereof and the Meth A in the ascites cells as harvested 6 or 7 days after the inoculation was used as tumor cells.
Each of the BALB/c mice was inoculated intrapleurally with 5 x 10^5 Meth A cells in 0.1 ml Hanks solution.
Test compound was dissolved in phosphate buffer saline solution, and was injected into pleural cavity to each of the mice in doses of 100 pg/0.05 ml/mouse three times, i.e. before 14 days, after 1 hour and after 3 days of tumor implantation.
The antitumor activity of the test compound was estimated by comparing mean survival time of the two groups. • T : Mean survival time of the medicated group • C : Mean survival time of the control group

Like-named read-outs stand apart in the source and are kept apart here.

As to `CCCCCCCCCCCCCCCCCCOCC(COP(=O)([O-])OCC[n+]1ccccc1)OC` (racemic) [Example 1, (rac)-l-O-octadecyl-2-0-methyl-glycerol-3-[2-(1-pyridinio)ethyl]phosphate], in assay [1] (Day 14), the “Mean of two diameters of the growing tumor” value (“Mean … of the growing tumor” below) came to 0 mm, the responders at 0.1 mg is 100% and the inhibition in vivo at 0.1 mg was found to be 100%. For the same compound, in assay [1] (Day 21), the “Ratio of tumor free mice [Number of tumor free mice/ Number of mice used as a group]” value was 6/6, the “Mean … of the growing tumor” value turned out to be 0 mm and the inhibition in vivo at 0.1 mg was determined as 100%. For the same compound, in assay [2], the “Anti-tumor activity (%) *d” value is on record as 367% and the Mean survival time turned out to be 22.0 days.
On to `CCCCCCCCCCCCCCCCCCOCC(COP(=O)(O)OCCN1CCN(C)CC1)OCC` (racemic) [3-(1), (rac)-l-O-Octadecyl-2-0-ethyl-glycerol-3-[2-(4-methyl-l-piperazinyl)ethyl]phosphate], for which, in assay [1] (Day 14), the “Mean … of the growing tumor” value was 0 mm, the responders at 0.1 mg was 100% and the inhibition in vivo at 0.1 mg amounted to 100%. In assay [1] (Day 21), the “Ratio of tumor free mice [Number of tumor free mice/ Number of mice used as a group]” value is on record as 6/6, the “Mean … of the growing tumor” value stood at 0 mm and the inhibition in vivo at 0.1 mg worked out at 100%. Also, in assay [2], the “Anti-tumor activity (%) *d” value is on record as 342% and the Mean survival time worked out at 20.5 days.
`CCCCCCCCCCCCCCCCCCOCC(COP(=O)([O-])OCC[n+]1ccccn1)OC` (racemic) [3-(12), (rac)-1-0-Octadecyl-2-0-methyl-glycerol-3-[2-(1-pyridazinio)ethyl]phosphate]: in assay [2], the “Anti-tumor activity (%) *d” value was 333% and the Mean survival time is 20.0 days.
Taken in the same sequence, the figures for `CCCCCCCCCCCCCCCCCCOCC(COP(=O)([O-])OCC[n+]1ccc(C)cc1)OC` (racemic) [3-(9), (rac)-1-0-Octadecyl-2-0-methyl-glycerol-3-[2-(4-methyl-l-pyridinio)ethyl]phosphate] were 350% and 21.0 days.
